In PubChem BioAssay (NCI):
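Step 1: Grow cells in 96-well plates. Step 2: Expose to compound for 48 hours at 5 concentrations. Step 3: Interpolate endpoints linearly; if unreached, use highest concentration. GI50 is the concentration that inhibits growth by half. TGI: total growth inhibition.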 Where a SMILES comes first, the peptide text is derived from it. The star is where a group is joined. Boc = CC(C)(C)OC(=O)*

Legend:
Assay in all cases: inhibition of tumour cell growth, NCI panel, 48 h
A549 NSCLC = tested on: A549 NSCLC
HS 578T breast = tested on: HS 578T breast
OVCAR-5 ovarian = tested on: OVCAR-5 ovarian
MDA-MB-231 breast = tested on: MDA-MB-231 breast
NCI-H226 lung = tested on: NCI-H226 lung
COLO 205 colon = tested on: COLO 205 colon
ACHN renal = tested on: ACHN renal
T-47D breast = tested on: T-47D breast
HCT-116 colon = tested on: HCT-116 colon
SR leukemia = tested on: SR leukemia

`CO[P@]1(=O)O[C@@H](c2ccccc2)[C@H](O)[C@]1(O)c1ccccc1` was tested, and the TGI (A549 NSCLC) was greater than 100 µM, the TGI (HS 578T breast) was greater than 100 µM and the TGI (OVCAR-5 ovarian) was greater than 100 µM. It also gave a TGI (MDA-MB-231 breast) greater than 100 µM, a TGI (NCI-H226 lung) greater than 100 µM and a TGI (COLO 205 colon) greater than 100 µM. The TGI (ACHN renal) was greater than 100 µM, the TGI (T-47D breast) was greater than 100 µM and the TGI (HCT-116 colon) was greater than 100 µM.

For `CCCCNC(=S)Nc1nc(C(=O)NNS(=O)(=O)c2ccccc2)cs1`, the TGI (A549 NSCLC) was greater than 100 µM, the TGI (OVCAR-5 ovarian) was greater than 100 µM and the TGI (MDA-MB-231 breast) was 68.8 µM. It also gave a TGI (SR leukemia) greater than 100 µM, a TGI (COLO 205 colon) of 38.6 µM and a TGI (ACHN renal) of 85.5 µM. The TGI (T-47D breast) was greater than 100 µM and the TGI (HCT-116 colon) was 69.5 µM.

Compound `Cn1c(N/N=C/c2ccc(Cl)cc2)nc(-c2ccc(Cl)cc2)c(C#N)c1=O` has a TGI (A549 NSCLC) of 39.2 µM, a TGI (HS 578T breast) of 86.4 µM and a TGI (OVCAR-5 ovarian) of 51.1 µM. For the same compound, the TGI (MDA-MB-231 breast) was 48.8 µM, the TGI (SR leukemia) was greater than 100 µM and the TGI (COLO 205 colon) was greater than 100 µM. For the same compound, the TGI (ACHN renal) was greater than 100 µM, the TGI (T-47D breast) was greater than 100 µM and the TGI (HCT-116 colon) was 26.3 µM.

Compound `CC1=C(C#N)S(=O)(=O)c2c(oc(C)c2C)N1` has a TGI (A549 NSCLC) greater than 100 µM, a TGI (HS 578T breast) greater than 100 µM and a TGI (OVCAR-5 ovarian) greater than 100 µM. It also gave a TGI (MDA-MB-231 breast) greater than 100 µM, a TGI (NCI-H226 lung) greater than 100 µM and a TGI (ACHN renal) greater than 100 µM. The TGI (T-47D breast) was greater than 100 µM and the TGI (HCT-116 colon) was greater than 100 µM.

`O=c1[nH]cnc2c1ncn2[C@H]1CO[C@@H](CO)[C@@H]1O` was tested, and the TGI (HS 578T breast) was greater than 100 µM, the TGI (OVCAR-5 ovarian) was greater than 100 µM and the TGI (MDA-MB-231 breast) was greater than 100 µM. For the same compound, the TGI (SR leukemia) was greater than 100 µM, the TGI (NCI-H226 lung) was greater than 100 µM and the TGI (COLO 205 colon) was greater than 100 µM. For the same compound, the TGI (ACHN renal) was greater than 100 µM, the TGI (T-47D breast) was greater than 100 µM and the TGI (HCT-116 colon) was greater than 100 µM.

`COc1ccc(-c2cn3ccnc3c(-c3ccc4ncn(C5CCCCC5)c4c3)n2)cc1` showed a GI50 (A549 NSCLC) of 1.83 µM, a TGI (A549 NSCLC) greater than 100 µM and a GI50 (HS 578T breast) of 1.16 µM. For the same compound, the TGI (HS 578T breast) was 49.3 µM, the GI50 (MDA-MB-231 breast) was 2.83 µM and the TGI (MDA-MB-231 breast) was greater than 100 µM. For the same compound, the GI50 (SR leukemia) was 0.89 µM, the TGI (SR leukemia) was greater than 100 µM and the GI50 (NCI-H226 lung) was 2.97 µM. It also gave a TGI (NCI-H226 lung) greater than 100 µM, a GI50 (COLO 205 colon) of 2.22 µM and a TGI (COLO 205 colon) of 14.4 µM. It also gave a GI50 (ACHN renal) of 0.692 µM, a TGI (ACHN renal) greater than 100 µM and a GI50 (T-47D breast) of 0.761 µM. The TGI (T-47D breast) was 4.5 µM, the GI50 (HCT-116 colon) was 0.399 µM and the TGI (HCT-116 colon) was 4.06 µM.

Compound `Brc1ccc2c(c1)C1=C(CO2)Cc2ccccc2O1` has a TGI (A549 NSCLC) of 48 µM, a TGI (OVCAR-5 ovarian) of 34.8 µM and a TGI (MDA-MB-231 breast) of 30.3 µM. The TGI (SR leukemia) was greater than 100 µM, the TGI (NCI-H226 lung) was 40.1 µM and the TGI (COLO 205 colon) was 31.5 µM. It also gave a TGI (ACHN renal) of 33.3 µM, a TGI (T-47D breast) of 33.2 µM and a TGI (HCT-116 colon) of 29.9 µM.

With `CCOC(=O)/C=C(/C(=O)OCC)n1cc(C)c(=O)n(Cc2cnnn2CCCCOC(C)=O)c1=O` the TGI (A549 NSCLC) was greater than 100 µM, the TGI (HS 578T breast) was greater than 100 µM and the TGI (OVCAR-5 ovarian) was 39.8 µM. The TGI (MDA-MB-231 breast) was greater than 100 µM, the TGI (NCI-H226 lung) was greater than 100 µM and the TGI (COLO 205 colon) was 56.7 µM. The TGI (ACHN renal) was 23.9 µM, the TGI (T-47D breast) was 71.1 µM and the TGI (HCT-116 colon) was 32.8 µM.

`NNC(=O)c1ccccc1NC(=O)/C(=C/c1ccccc1)NC(=O)c1ccccc1` showed a TGI (A549 NSCLC) greater than 100 µM, a TGI (HS 578T breast) greater than 100 µM and a TGI (OVCAR-5 ovarian) greater than 100 µM. The TGI (MDA-MB-231 breast) was greater than 100 µM, the TGI (NCI-H226 lung) was greater than 100 µM and the TGI (COLO 205 colon) was greater than 100 µM. For the same compound, the TGI (ACHN renal) was greater than 100 µM, the TGI (T-47D breast) was greater than 100 µM and the TGI (HCT-116 colon) was greater than 100 µM.

Compound `CC(NC(=O)C(NC(=O)OC(C)(C)C)C(C)C)C(=O)NCC(=O)O` (stereo not drawn) (Boc-Val-Ala-Gly-OH; configuration not given here) has a TGI (A549 NSCLC) greater than 100 µM, a TGI (HS 578T breast) greater than 100 µM and a TGI (OVCAR-5 ovarian) greater than 100 µM. It also gave a TGI (SR leukemia) greater than 100 µM, a TGI (COLO 205 colon) greater than 100 µM and a TGI (ACHN renal) greater than 100 µM. It also gave a TGI (T-47D breast) greater than 100 µM and a TGI (HCT-116 colon) greater than 100 µM.

`O=C1NC(N2CCOCC2)=N/C1=C\c1ccccc1O` showed a TGI (A549 NSCLC) greater than 100 µM, a TGI (HS 578T breast) greater than 100 µM and a TGI (OVCAR-5 ovarian) greater than 100 µM. The TGI (MDA-MB-231 breast) was greater than 100 µM, the TGI (NCI-H226 lung) was greater than 100 µM and the TGI (COLO 205 colon) was greater than 100 µM. The TGI (ACHN renal) was greater than 100 µM, the TGI (T-47D breast) was greater than 100 µM and the TGI (HCT-116 colon) was greater than 100 µM.
